Test results: PMC11303563 (Communications Medicine, 2024)
“And” between values parts separate entries of the source, which are not always exact repeats. Equal values may be shown once.

Experiments:
[1] = system: THR-regulated genes and lipid metabolism-related genes in the liver
[2] = In vitro blood-brain barrier permeability assay (BBB kit RBT-24H); format: in vitro ADME, rat; settings: rat, 10 μM on luminal side, read-out: apparent permeability (Papp)
Method: Therefore, we tested BBB transparency in vitro using the BBB kit RBT-24H (PharmaCo-Cell)[35]. […] Blood-brain barrier permeability assay The blood-brain barrier (BBB) transparency of TH analogs was assessed in vitro using RBT-24H (PharmaCo-Cell)[5] according to the manufacturer 's protocol. […] After 30 min, the assay buffer in the wells mimicking the abluminal side was collected, and the concentration of the compounds was measured using liquid chromatography-mass spectrometry (LC-MS). […] These tips were preconditioned with 20 μL of acetonitrile and 20 μL of 0.1% TFA in purified water. 100 μL of the samples were loaded onto the preconditioned tips, washed with 200 μL of DW, and then eluted with 10 μL of acetonitrile. Triazine (1% vol/vol) was added to the eluent as an internal standard. […] 3 μm; Imtakt, Kyoto, Japan). All the experiments were performed using an Ultimate 3000 UHPLC system coupled with a Q Exactive Plus Orbitrap mass spectrometer (Thermo Fisher Scientific). […] Data were shown as mean ± standard deviation (n=3).

[3] = Serum ALT (hepatotoxicity); settings: for Serum ALT, group mean (Mean 2): n 10, Vehicle mean […]; for serum ALT level vs vehicle: HFD mice, 3 weeks
Method: Male 7-week-old C57BL/6J mice were obtained from a local supplier (Nihon SLC, Shizuoka, Japan). The mice were individually housed in cages (Innocage; ORIENTAL GIKEN) at 23 °C with a 12-h-light–dark cycle starting at 08:00 a.m. […] The injection was prepared by dissolving the compounds in 0.5 N NaOH at a concentration of 100 mM, which was then further diluted with saline to a concentration of either 0.05 or 0.5 mM. The volume of the solution injected was determined based on the body weight of the animal, measured once a week, with 0.05 and 0.5 mM solutions injected at 0.1 and 1 µmol/kg day, respectively. Each group consisted of 10 animals, except for the ND (n = 8) and HFD with saline (vehicle, n = 9) groups. […] In the HFD-treated group, one animal was excluded from the analysis because its body weight was less than two standard deviations below the mean.
The blood samples were left to stand for 1 h at room temperature, then centrifuged at 4 °C for 15 min at 800 × g, and the supernatant was collected. […] Serum ALT levels were measured using Alanine Aminotransferase (ALT or SGPT) Activity Colorimetric/Fluorometric Assay Kit (BioVision) according to the manufacturer’s protocol.
Data are shown as the mean ± SEM (n = 8–10).

[4] = system: left ventricular cardiomyocytes; test: Trans-nuclear width of left ventricular cardiomyocytes (hematoxylin-eosin staining); settings: for Mean Diff. (Vehicle vs. treated group): Vehicle minus treated, Tukey's multiple comparisons test; for Mean (group mean, Fig. 7c; Tukey's multiple comparisons test details) / Mean Diff. (Vehicle vs. treated group): Fig. 7c
Method: Male 7-week-old C57BL/6J mice were obtained from a local supplier (Nihon SLC, Shizuoka, Japan). The mice were individually housed in cages (Innocage; ORIENTAL GIKEN) at 23 °C with a 12-h-light–dark cycle starting at 08:00 a.m. […] The injection was prepared by dissolving the compounds in 0.5 N NaOH at a concentration of 100 mM, which was then further diluted with saline to a concentration of either 0.05 or 0.5 mM. The volume of the solution injected was determined based on the body weight of the animal, measured once a week, with 0.05 and 0.5 mM solutions injected at 0.1 and 1 µmol/kg day, respectively. Each group consisted of 10 animals, except for the ND (n = 8) and HFD with saline (vehicle, n = 9) groups. In the ND-treated group, one animal died during the experimental period, and one animal was excluded from the analysis after finding tumor-like lesions in the liver. In the HFD-treated group, one animal was excluded from the analysis because its body weight was less than two standard deviations below the mean.
Heart tissues were fixed, dehydrated, and permeated with paraffin using an automatic fixation and encapsulation device (Sakura Finetech, Japan). Paraffin blocks were prepared using Tissue Tech TEC 6 (Sakura Finetech, Japan), and 5 µm-thick transverse transmural sections were prepared with a microtome (Leica). The sections were deparaffinized, rehydrated, and immersed in Meyer’s hematoxylin solution (FUJIFILM Wako Pure Chemical Industries), followed by eosin staining. Sections were dehydrated and mounted using Entellan New (Merck). Sections were observed under a microscope (BX43; Olympus) at × 400 magnification and digital images were captured using cellSens (Olympus). 100 cells were randomly selected from the left ventricle of an individual mouse, and their trans-nuclear widths were measured according to Oláh et al.[23] using Image J (National Institute of Health).
Heart sections were prepared and subjected to hematoxylin–eosin staining. 100 cells were randomly selected from the left ventricle of an individual mouse, their trans-nuclear widths were measured, and average values were calculated. Data are shown as the mean ± SEM (n = 8–10). Significant differences among groups are indicated by asterisks (*P < 0.05, **P < 0.01, ***P < 0.001, and ****P < 0.0001, one-way ANOVA with Tukey’s post-hoc test) (c).

[5] = system: high-fat diet (HFD)-induced obesity model mice; test: Serum lipid analysis (total cholesterol, triglycerides) in HFD mice; format: in vivo, C57BL/6J mice; set-up: Serum TC (Fig. 4a), individual mouse values / Serum TG (Fig. 4b), individual mouse values / Serum TC (Fig. 4a), Mean Diff. ND vs. treatment (Tukey) / Serum TC (Fig. 4a), Mean Diff. Vehicle vs. treatment (Tukey) / Serum TC (Fig. 4a), group mean (Mean 2) / Mean Diff., ND vs. treated (Fig. 4b) / Mean Diff., Vehicle vs. treated (Fig. 4b) / Mean (Fig. 4b): unit not given here; settings: for Serum TC (Fig. 4a), group mean (Mean 2) / Mean (Fig. 4b): n=10; for Serum TC (Fig. 4a), Mean Diff. ND vs. treatment (Tukey): ND minus treated; for Serum TC (Fig. 4a), Mean Diff. Vehicle vs. treatment (Tukey): Vehicle minus treated; for Mean Diff., ND vs. treated (Fig. 4b) / Mean Diff., Vehicle vs. treated (Fig. 4b): Tukey's multiple comparisons test; for Mean (Fig. 4b): group mean
Method: Fig. 4 Effects of TH analogs on the accumulation of lipids in mice. […] After 3 weeks of injection, serum and liver tissues were collected, and the amount of serum cholesterol (a), serum triglycerides (b), liver cholesterol (c), liver triglycerides (d), and liver total lipids (e) were measured.

[6] = system: high-fat diet (HFD)-induced obesity model mice; test: Body weight of high-fat diet-induced obesity model mice; format: in vivo, C57BL/6J mice; set-up: Body weight, Mean Diff. ND vs. treated: unit not given here; settings: for Body weight, 95.00% CI of diff. ND vs. treated / Body weight, Mean Diff. ND vs. treated: ND group as comparator; for Body weight, 95.00% CI of diff. ND vs. treated / Body weight, Mean Diff. ND vs. treated / Body weight, 95.00% CI of diff. Vehicle vs. treated / Body weight, Mean Diff. Vehicle vs. treated: Tukey's multiple comparisons test; for Body weight, Mean Diff. Vehicle vs. treated / Body weight, group mean (Fig. 3a) / Body weight, individual mice (Fig. 3a): in g (unit assumed); for Body weight, group mean (Fig. 3a): n 10
Method: The injection was given 6 h after light on. Food consumption and body weights were measured weekly. Food and water were provided to the animals ad libitum. The animals were treated according to the guidelines of Nagoya University, and all experimental procedures were approved by the Animal Experiment Committee of Nagoya University (A210715-003).
(§1) Epididymal adipose tissue was weighed.
(§2) Fig. 3 Effects of intraperitoneal injection of TH analogs on body weight and deposition of visceral fat. […] After three weeks of injection, body weight (a), and weight of the epididymal adipose tissue (b) were measured.

[7] = system: high-fat diet (HFD)-induced obesity model mice; test: Weight of epididymal adipose tissue (visceral fat) in HFD mice; format: in vivo, C57BL/6J mice; settings: for Fig. 3b (weight of epididymal adipose tissue), group mean (Mean 2) / Epididymal adipose weight, individual mice (Fig. 3b) / weight of the epididymal adipose tissue vs vehicle: HFD mice; for Fig. 3b (weight of epididymal adipose tissue), group mean (Mean 2): n=10; for Fig. 3b (weight of epididymal adipose tissue), group mean (Mean 2) / Fig. 3b (weight of epididymal adipose tissue), Mean Diff. ND vs. treatment (Tukey) / Fig. 3b (weight of epididymal adipose tissue), Mean Diff. Vehicle vs. treatment (Tukey) / Epididymal adipose weight, individual mice (Fig. 3b): in mg (unit assumed); for Fig. 3b (weight of epididymal adipose tissue), Mean Diff. ND vs. treatment (Tukey): ND minus treated; for Fig. 3b (weight of epididymal adipose tissue), Mean Diff. Vehicle vs. treatment (Tukey): Vehicle minus treated; for weight of the epididymal adipose tissue vs vehicle: 3 weeks
Method: as §1, §2

[8] = HFD mice, 1 μmol/kg day, RT-qPCR, reference gene Rps18
[9] = liver gene expression, 1µmol dose group vs. Vehicle
[10] = HFD mice, i.p. 1 µmol/kg day, 3 weeks

O=C(O)Cc1cc(C(F)(F)F)c(Cc2ccc(O)c3ccccc23)c(C(F)(F)F)c1 [ZTA-261]
Cyp7a1 expression in the liver, individual animal values ([1]; 1µmol, one value per animal): 0.6381 and 0.6001 and 0.9755 and 0.7051 and 0.7377 and 0.8699 and 1.225 and 1.875 and 1.688 and 1.407 | Dio1 expression in the liver, individual animal values ([1]; 1µmol, one value per animal): 2.348 and 0.8674 and 3.4594 and 3.712 and 3.243 and 4.342 and 3.767 and 2.33 and 3.714 and 5.338 | Ldlr expression in the liver, individual animal values ([1]; 1µmol, one value per animal): 0.4288 and 1.672 and 1.891 and 1.348 and 1.361 and 2.264 and 2.662 and 1.059 and 1.183 and 1.422 | Me1 expression in the liver, individual animal values ([1]; 1µmol, one value per animal): 2.009 and 0.7713 and 1.636 and 2.32 and 2.026 and 3.023 and 3.213 and 2.688 and 3.436 and 4.664 | Pnpla2 expression in the liver, individual animal values ([1]; 1µmol, one value per animal): 1.268 and 0.9327 and 2.591 and 7.772 and 2.012 and 5.634 and 5.017 and 1.649 and 3.705 and 2.077 | Srebp1c expression in the liver, individual animal values ([1]; 1µmol, one value per animal): 0.1054 and 0.05247 and 0.1951 and 0.3686 and 0.2695 and 0.5078 and 0.5858 and 0.293 and 0.5057 and 0.124 | Thrsp expression in the liver, individual animal values ([1]; 1µmol, one value per animal): 1.26 and 1.164 and 1.998 and 1.521 and 1.182 and 1.374 and 1.7691 and 1.941 and 1.759 and 2.356 | liver expression of Cyp7a1 vs vehicle [1, 8]: not significantly different | liver expression of Dio1 vs vehicle [1, 8]: significantly upregulated | liver expression of Ldlr vs vehicle [1, 8]: not significantly different | liver expression of Me1 vs vehicle [1, 8]: significantly upregulated | liver expression of Pnpla2 vs vehicle [1, 8]: significantly higher | liver expression of Srebp1c vs vehicle [1, 8]: Although not statistically significant, the ZTA-261-treated group showed decreased Srebp1c expression | liver expression of Thrsp vs vehicle [1, 8]: increased | Pnpla2, Dunn's multiple comparisons test, Mean rank diff. (Vehicle vs. compound) [1, 9]: -17.5 | Srebp1c, Dunn's multiple comparisons test, Mean rank diff. (Vehicle vs. compound) [1, 9]: 13.17 | Pnpla2, Mean rank of treatment group (Mean rank 2) ([1]; liver gene expression, 1µmol dose group, Vehicle mean rank 8): 25.5 | Srebp1c, Mean rank of treatment group (Mean rank 2) ([1]; liver gene expression, 1µmol dose group, Vehicle mean rank […]): 20.5 | Papp at 30 min, 10 µM [2]: 7.28 ± 2.55 ×10⁻⁶ cm/s | Serum ALT (Fig.7a), individual animal values ([3]; 0.1 µmol dose group): 6.621 and 5.838 and 5.844 and 8.207 and 7.718 and 6.528 and 9.431 and 12.922 and 7.155 and 6.407 | Serum ALT, Tukey's multiple comparisons test, Mean Diff. (Vehicle vs. compound) ([3]; 0.1 µmol dose group vs. Vehicle): 3.439 | Serum ALT, group mean (Mean 2) ([3]; 0.1 µmol dose group): 7.667 | Serum ALT (Fig.7a), individual animal values ([3]; 1 µmol dose group): 16.644 and 8.576 and 9.103 and 8.327 and 7.596 and 9.601 and 12.863 and 9.311 and 13.948 and 12.038 | Serum ALT, Tukey's multiple comparisons test, Mean Diff. (Vehicle vs. compound) ([3]; 1 µmol dose group vs. Vehicle): 0.3054 | Serum ALT, group mean (Mean 2) ([3]; 1 µmol dose group): 10.8 | serum ALT level vs vehicle ([3]; i.p. 0.1 µmol/kg day): did not show a significant increase | serum ALT level vs vehicle ([3]; i.p. 1 µmol/kg day): did not show a significant increase | cardiac width (Fig. 7c), individual values ([4]; 0.1 µmol dose group): 11.9852 and 12.1667 and 12.7952 and 11.4055 and 11.1301 and 11.9423 and 11.9907 and 12.4833 and 12.1061 and 13.5905 | cardiac width (Fig. 7c), individual values ([4]; 1 µmol dose group): 12.0147 and 12.4259 and 11.3636 and 12.41 and 12.0185 and 12.8514 and 11.9471 and 13.2394 and 12.2836 and 12.7848 | Mean (group mean, Fig. 7c; Tukey's multiple comparisons test details) ([4]; HFD mice, dose 0.1 µmol): 12.16 | Mean (group mean, Fig. 7c; Tukey's multiple comparisons test details) ([4]; HFD mice, dose 1 µmol): 12.33 | transnuclear width of left ventricular cardiomyocytes vs vehicle [4, 10]: significantly increased | Mean Diff. (Vehicle vs. treated group) ([4]; dose 0.1 µmol): -1.182 | Mean Diff. (Vehicle vs. treated group) ([4]; dose 1 µmol): -1.356 | Serum TC (Fig. 4a), individual mouse values ([5]; 0.1 µmol, HFD mice): 170.917 and 174.042 and 146.958 and 171.875 and 171.042 and 164.292 and 178.75 and 197.208 and 153.333 and 201.333 | Serum TG (Fig. 4b), individual mouse values ([5]; 0.1 µmol, HFD mice): 76.25 and 92.083 and 101.25 and 78.417 and 57.583 and 89.25 and 104.25 and 84.25 and 81.75 | Serum TC (Fig. 4a), group mean (Mean 2) ([5]; 0.1 µmol, HFD mice): 173 | Serum TC (Fig. 4a), Mean Diff. ND vs. treatment (Tukey) ([5]; 0.1 µmol): 6.447 | Serum TC (Fig. 4a), Mean Diff. Vehicle vs. treatment (Tukey) ([5]; 0.1 µmol): 77.09 | Serum TC (Fig. 4a), individual mouse values ([5]; 1 µmol, HFD mice): 100.083 and 106.125 and 141.958 and 148.125 and 147.292 and 139.708 and 132.5 and 117.5 and 94.583 and 113 | Serum TG (Fig. 4b), individual mouse values ([5]; 1 µmol, HFD mice): 52.917 and 53.75 and 90.417 and 88.75 and 67.917 and 87.917 and 73.75 and 69.583 and 82.083 and 85.417 | Serum TC (Fig. 4a), group mean (Mean 2) ([5]; 1 µmol, HFD mice): 124.1 | Serum TC (Fig. 4a), Mean Diff. ND vs. treatment (Tukey) ([5]; 1 µmol): 55.33 | Serum TC (Fig. 4a), Mean Diff. Vehicle vs. treatment (Tukey) ([5]; 1 µmol): 126 | Mean Diff., ND vs. treated (Fig. 4b) ([5]; ND minus 0.1 µmol group): 62.42 | Mean Diff., ND vs. treated (Fig. 4b) ([5]; ND minus 1 µmol group): 71.52 | Mean Diff., Vehicle vs. treated (Fig. 4b) ([5]; Vehicle minus 0.1 µmol group): 31.43 | Mean Diff., Vehicle vs. treated (Fig. 4b) ([5]; Vehicle minus 1 µmol group): 40.53 | Mean (Fig. 4b) ([5]; 0.1 µmol, HFD mice): 84.35 | Mean (Fig. 4b) ([5]; 1 µmol, HFD mice): 75.25 | serum triglyceride level vs vehicle [5, 10]: decreased | Body weight, 95.00% CI of diff. ND vs. treated ([6]; 0.1 µmol dose group): -17.31 to -8.599 | Body weight, Mean Diff. ND vs. treated ([6]; 0.1 µmol dose group): -12.95 | Body weight, 95.00% CI of diff. Vehicle vs. treated ([6]; 0.1 µmol dose group): -2.779 to 5.659 | Body weight, Mean Diff. Vehicle vs. treated ([6]; 0.1 µmol dose group): 1.44 | Body weight, 95.00% CI of diff. ND vs. treated ([6]; 1 µmol dose group): -11.31 to -2.596 | Body weight, Mean Diff. ND vs. treated ([6]; 1 µmol dose group): -6.951 | Body weight, 95.00% CI of diff. Vehicle vs. treated ([6]; 1 µmol dose group): 3.224 to 11.66 | Body weight, Mean Diff. Vehicle vs. treated ([6]; 1 µmol dose group): 7.443 | Body weight, group mean (Fig. 3a) ([6]; HFD mice, 0.1 µmol dose group): 41.47 | Body weight, individual mice (Fig. 3a) ([6]; HFD mice, 0.1 µmol dose group): 40.29 and 36.71 and 35.46 and 47.2 and 43.74 and 41.64 and 46.66 and 44.04 and 36.76 and 42.23 | Body weight, group mean (Fig. 3a) ([6]; HFD mice, 1 µmol dose group): 35.47 | Body weight, individual mice (Fig. 3a) ([6]; HFD mice, 1 µmol dose group): 32.91 and 31.68 and 37.61 and 39.1 and 35.68 and 36.65 and 37.77 and 35.13 and 35.26 | body weight vs vehicle (in words) ([6]; HFD mice, i.p. 0.1 µmol/kg day, 3 weeks): did not significantly reduce body weight | decrease of body weight compared to vehicle [6, 10]: ~ 20% | Fig. 3b (weight of epididymal adipose tissue), group mean (Mean 2) ([7]; 0.1 µmol): 2650 | Fig. 3b (weight of epididymal adipose tissue), Mean Diff. ND vs. treatment (Tukey) ([7]; 0.1 µmol): -1966 | Fig. 3b (weight of epididymal adipose tissue), Mean Diff. Vehicle vs. treatment (Tukey) ([7]; 0.1 µmol): 208.4 | Fig. 3b (weight of epididymal adipose tissue), group mean (Mean 2) ([7]; 1 µmol): 1679 | Fig. 3b (weight of epididymal adipose tissue), Mean Diff. ND vs. treatment (Tukey) ([7]; 1 µmol): -996 | Fig. 3b (weight of epididymal adipose tissue), Mean Diff. Vehicle vs. treatment (Tukey) ([7]; 1 µmol): 1179 | Epididymal adipose weight, individual mice (Fig. 3b) ([7]; 0.1 µmol dose group): 2776.2 and 2045.1 and 1929.4 and 2510.8 and 2876.4 and 3044.5 and 3312.5 and 2871.5 and 2180.4 and 2949.5 | Epididymal adipose weight, individual mice (Fig. 3b) ([7]; 1 µmol dose group): 1625 and 1387 and 1309.2 and 1666.6 and 1860.1 and 1033.5 and 2042 and 1824.7 and 1973.2 and 2072 | weight of the epididymal adipose tissue vs vehicle ([7]; i.p. 0.1 µmol/kg day): did not show any obvious effect | weight of the epididymal adipose tissue vs vehicle ([7]; i.p. 1 µmol/kg day): decreased significantly
